# Earlier results, collected in patent US6362169B1 (priority 1998, dated 2002).
# Test system: Helicobacter pylori
# Settings: combination use with a proton pump inhibitor or a bismuth preparation (WO 97/02039)
compound,measurement,value
"CO[C@H]1/C=C/O[C@@]2(C)Oc3c(C)c(O)c4c(c3C2=O)C2=NC3(CCN(CC(C)C)CC3)NC2=C(NC(=O)/C(C)=C\C=C\[C@H](C)[C@H](O)[C@@H](C)[C@@H](O)[C@@H](C)[C@H](OC(C)=O)[C@@H]1C)C4=O [Rifabutin, rifabutin]",effect on minimum inhibitory concentration by combination use,synergistic effect
